Laboratory results taken from patent US6858434B1, “Method for synthesis, separation and screening of a plurality of compounds in the same bulk of a stationary phase” (Sinvent AS, priority 1999, dated 2005).

System: Serracia marcescens
Experiment: agar overlay screening for antimicrobial activity on the TLC plate
Assay type: cell-based
Settings: agar gel containing Serracia marcescens poured over the TLC plate, left overnight at room temperature

c1ccc(CN2CCCC2)cc1 [product]
antibacterial activity (white inhibition zones around the spot): antibacterial activity
